These results are taken from PMC10510387, “Targeting Cytotoxic Agents through EGFR-Mediated Covalent Binding and Release” (Journal of Medicinal Chemistry, 2023).

Series [1] deals with T1, WT EGFR (Homo sapiens, UniProt P00533). In words: Protein mass spectrometry after incubation of compound with EGFR. Format: binding. Particulars: for adduct formation with EGFR / release of 5FU from EGFR adduct: 15 μM compound, 4 μM EGFR, 4 hr; for adduct formation with EGFR: ambient temperature; for release of 5FU from EGFR adduct: protein mass spectrometry; for mass increase of adduct after loss of 5FU / mass increase of initial (intact) adduct: relative to apo protein. The method, then:
Compounds were suspended in 10 mM in 100% DMSO and were added to 4 μM of EGFR to achieve the final compound concentration of 15 μM in 1% DMSO, in 25 mM Tris pH 8, 150 mM NaCl, 5% Glycerol before incubating at an ambient temperature for 4 hr time prior to analysis.
Following incubation, intact protein masses were determined using an Agilent 6530 Accurate Mass dual AJS/ESI Q-TOF instrument coupled to an Agilent 1260 Infinity II LC system. 1 μL of purified protein (∼1 mg/mL) was injected onto an MS Pac DS-10 Desalter cartridge ((Thermo Fisher Scientific), PN: 089170, 2.1 × 10 mm) for desalting and reversed phase separation at 70 °C. The mobile phase was 0.1% (v/v) formic acid in LC-MS grade water (A) and LC-MS grade acetonitrile (B) with separation performed over 7.5 min. […] Proteins were detected in positive ion mode using electrospray ionization with a nebulizer pressure of 45 psig, a drying gas flow of 5 L/min, and a source gas temperature of 325 °C. A sheath gas temperature of 400 °C, a gas flow of 11 L/min, a capillary voltage of 3500 V, and a nozzle voltage of 2000 V were also used. Mass spectra were acquired using MassHunter Acquisition software (version B.08.00) over a mass range of 100–3000 m/z at a rate of 1 spectra/s and 1000 ms/spectrum in the standard mass range (3200 m/z) at 2 GHz. The instrument had been calibrated over the selected mass range prior to analysis.

A further series has as its system DM EGFR. In words: In vitro TR-FRET assay, DM EGFR. Format: binding.
Series [2] concerns the target T1, WT EGFR. In words: In vitro TR-FRET assay, WT EGFR. To be noted: for WT EGFR pIC50: Table S1, TR FRET, n=1, 2 technical replicates. Format: binding. In general terms: Time-resolved FRET reads energy transfer from a long-lived donor to a nearby acceptor.
In series [3] the test system is pEGFR (Tyr1068) in A431 cells. In words: Cellular pEGFR inhibition by HTRF (A431). It counts as cell-based. Particulars: for IC50: Homo sapiens, A-431, Figure 5a, read-out: pEGFR pIC50 (converted); for pEGFR pIC50: Figure 5a. As for the experimental part:
Cells were plated at 20 000 cells per well in 96-well plates and placed at 37 °C with 5% CO2. […] Compound and media were removed from the cells, and then 50 μL of HTRF lysis buffer was added (lysis buffer was diluted from 4× stock to 1× in deionized (DI) water, with 1% blocking agent also added). Cells were lysed on a plate shaker (2000 rpm) for 30 min at room temperature. pEGFR expression was monitored using the Cisbio Phospho-EGFR (Tyr1068) cellular kit (64EG1PEH). Total EGFR expression was monitored using the Cisbio Total EGFR cellular kit (64NG1PEH) as per the manufacturer’s instructions. […] Results were calculated as the ratio of pEGFR/total EGFR and then the percentage of 0 μM control.

In the next series the test system is A431 cells. In words: Growth inhibition in adherent cell lines (SRB, 72 h). It counts as cell-based. To be noted: for GI50: Homo sapiens, A-431, 72 h. The method, then: On day 1, the compounds were diluted to the required concentration in DMEM +10% FBS media, ensuring that the final DMSO concentration was 0.1% once added to cells. […] Cells were then fixed by adding 50% (wt/vol) TCA to each well of the plate and left at 4 °C for 1 h. The plates were then washed thoroughly with water, 100 μL of 0.4% SRB solution was added to the wells, and left at room temperature for 30 min. The plates were rinsed with 1% AcOH and then left to air-dry in a drying cabinet for 1 h. […] The absorbance was read at 570 nm using a FluoStar Omega plate reader.

Series [4] concerns EGFR phosphorylation in A431 cells. In words: pEGFR inhibition by Western blot in A431. It counts as cell-based. Particulars: 4 h. As for the experimental part: Appropriately treated cells were lysed in Phosphosafe extraction buffer combined with cOmplete Protease Inhibitor Cocktail (Merck) prepared as per the manufacturer’s instructions.
Samples were prepared in Eppendorf vials by diluting them to the required concentrations with phosphate-buffered saline (PBS), and the appropriate amount of 4X XT sample buffer was added. This solution was vortexed, centrifuged, then placed at 98 °C for 5 min, and then centrifuged to remove the residue. Migration was performed using a 4–20% Criterion TGX Precast Midi Protein Gel, 18 well, 30 μL (Cat. No. 5671094) placed in a Criterion running tank (Cat. No. 1656001) and also using PowerPac HC high-current power supply (Bio-Rad) electrodes. Nitrocellulose membrane used was an Amersham Protran Premium 0.45 Nitrocellulose membrane (Cat. No. 15269794) and Ponceau S Stain (Sigma-Aldrich Cat. No. p7170).
Primary antibodies raised to EGFR (CST 4267) or pEGFR (CST 3777) were diluted (1:1000) in 5% BSA w/v. Loading control antibodies were prepared in 5% milk w/v with 1 × TBS/T (0.1 v/v) solution at a determined optimum concentration.
Secondary HRP-conjugated antibodies were diluted in 5% milk with w/v in 1 × TBS/T (0.1 v/v) solution at a determined optimum concentration.
Proteins were detected using the Clarity ECL Western blotting substrate (Bio-Rad).
On the technique in general: A western blot detects proteins with antibodies after separation by electrophoresis.

A short description of series [5]: Compound media stability (LC-MS). It counts as physicochemical. Particulars: DMEM + 10% FCS, 1.0 μM, 25 h. As for the experimental part:
Compound 53 (0.760 mg, 1.51 μmol) was dissolved in DMSO […] and then added to DMEM (Sigma-Aldrich 5796) + 10% FCS media (1.50 mL) such that the final concentration was 1.0 μM. Liquid chromatography-mass spectrometry (LC-MS) analysis was carried out at t = 0, 1, 3, and 25 h.

Series [6] in a line: 19F NMR 5FU release study with N-acetyl-L-cysteine methyl ester. Format: physicochemical. Particulars: reaction with N-acetyl cysteine. The method, then:
Reaction of the model systems with N-acetyl-L-cysteine methyl ester was assessed by ^19F NMR.
Acrylate-5FU conjugate (0.125 M) in d^6-DMSO (0.25 mL) was prepared in an NMR tube. N-Acetyl cysteine methyl ester (1.9 mg, 0.011 mmol) or glutathione (3.4 mg, 0.011 mmol) in d^6-DMSO was prepared. The cysteine/glutathione solution was added to the NMR tube, and the tube was inverted several times. The ^19F NMR was taken immediately for t = 0 measurement. Further measurements were taken at t = 30 min and t = 60 min.

Setting [7] is: Table S1, TR FRET, n=1, 2 technical replicates.
Setting [8] is: A431 cell viability, 72 h, Figure 5c.
Setting [9] is: WT EGFR, TR-FRET, n > 2, Figure 5a and text.
Where [10] appears, read: A431 cell viability, 72 h, Figure 6b, single agents and equimolar combination.

“Also recorded” adds a separate entry of the source. Where two headings read alike, the source gives them in different places.

As for “(E)-1-(3-(3-((4-((3-Chloro-4-fluorophenyl)amino)-7-methoxyquinazolin-6-yl)oxy)azetidin-1-yl)-3-oxoprop-1-en-1-yl)-5-fluoropyrimidine-2,4(1H,3H)-dione [compound 48]”, at WT EGFR [1], the “adduct formation with EGFR” value was “covalent adduct formation” and the “release of 5FU from EGFR adduct” value is given as “without evidence of the release of 5FU”. For the same compound, the “DM EGFR pIC50” value in the series on DM EGFR (setting [7]) is 6.7. The “WT EGFR pIC50” value at WT EGFR [2] stood at 6.6.

What is called GI50 is the concentration giving 50% growth inhibition. `COc1cc2ncnc(Nc3ccc(F)c(Cl)c3)c2cc1NC(=O)/C=C/CN1CCCCC1` [compound 2, dacomitinib, reference compound]: in series [3], the IC50 was 10 nM. This compound had a GI50 in the series on A431 cells (setting [8]) of 79.4 nM.

Turning to “2-Fluoro-4-methoxy-5-((4-(1-methyl-1H-indol-3-yl)pyrimidin-2-yl)amino)phenyl (E)-3-(5-fluoro-2,4-dioxo-3,4-dihydropyrimidin-1(2H)-yl)acrylate [compound 35]”, on WT EGFR [1], the “adduct formation with EGFR” value was “evidence of adduct formation” and the “release of 5FU from EGFR adduct” value is “without evidence of the release of 5FU”. Also, in the series with DM EGFR (setting [7]), the “DM EGFR pIC50” value came to 5.5. At WT EGFR [2], the “WT EGFR pIC50” value is listed as less than 4.0.

A word on the pGI50: it is the GI50 on a negative log10 scale, so that one unit is a factor of ten. Low values mean a large GI50, high ones a small GI50. In the case of “(E)-N-(4-((3-Chloro-4-fluorophenyl)amino)-7-methoxyquinazolin-6-yl)-3-(5-fluoro-2,4-dioxo-3,4-dihydropyrimidin-1(2H)-yl)acrylamide [compound 57]”, the “pEGFR pIC50” value in series [3] came out at 5.6. Also, the antiproliferative effect result in the series on A431 cells (A431, 72 h growth inhibition) was “no antiproliferative effects”. For the same compound, the pGI50 in the series with A431 cells (supplementary CSV column) is on record as less than 5.0. Also, on WT EGFR [1], the “adduct formation with EGFR” value is on record as “clear adduct”, the “release of 5FU from EGFR adduct” value was “negligible release of 5FU”, the “mass increase of adduct after loss of 5FU” value is on record as 371 Da and the “mass increase of initial (intact) adduct” value is 501 Da. Also, the “EGFR pIC50” value on WT EGFR [2] (setting [9]) turned out to be 7.3. The “inhibition of EGFR phosphorylation at 10 μM” value in series [4] is “little inhibition”.

With “4-((3-Chloro-4-fluorophenyl)amino)-7-methoxyquinazolin-6-yl (E)-3-(5-fluoro-2,4-dioxo-3,4-dihydropyrimidin-1(2H)-yl)acrylate [compound 53]”, in series [3], the “pEGFR pIC50” value stood at 7.8. Further, the pGI50 in the series with A431 cells (setting [8]) worked out at 5.3. In series [5], the “hydrolysis in cell media” value was “some hydrolysis did occur” and the “release of 5FU in cell media” value is listed as “no observation of the release of 5FU”. In addition, at WT EGFR [1], the “adduct formation with EGFR” value is given as “two new major adducts”, the “release of 5FU from EGFR adduct” value is listed as “loss of 5FU from the complex”, the “mass increase of adduct after loss of 5FU” value is on record as 372 Da and the “mass increase of initial (intact) adduct” value came to 502 Da. For the same compound, the “EGFR pIC50” value on WT EGFR [2] (setting [9]) is given as 6.8. Moreover, the “time to complete release of 5FU” value in series [6] was 1 h. For the same compound, in series [4], the “inhibition of EGFR phosphorylation at 1 μM” value is on record as “not at 1 μM” and the “inhibition of EGFR phosphorylation at 10 μM” value is “marked inhibition”.

On to “(R, E)-1-(3-(3-((4-((3-Chloro-4-fluorophenyl)amino)-7-methoxyquinazolin-6-yl)oxy)pyrrolidin-1-yl)-3-oxoprop-1-en-1-yl)-5-fluoropyrimidine-2,4(1H,3H)-dione [compound 49]”, for which the “DM EGFR pIC50” value in the series on DM EGFR (setting [7]) is listed as 6.4. Further, on WT EGFR [2], the “WT EGFR pIC50” value came to 5.6.

Turning to `O=c1[nH]cc(F)c(=O)[nH]1` [5-FU, 5-fluorouracil, reference compound], the GI50 in the series on A431 cells (A431 cell viability, 72 h, Figure 6a, single agents and equimolar combination) is 631 nM; with A431 cells (setting [10]) it was 631 nM.

Regarding `COc1cc2ncnc(Nc3ccc(F)c(Cl)c3)c2cc1OC(=O)/C=C/CN1CCCCC1` [compound 56, 4-((3-Chloro-4-fluorophenyl)amino)-7-methoxyquinazolin-6-yl (E)-4-(piperidin-1-yl)but-2-enoate], in series [3], the IC50 was 5010 nM. Besides, the GI50 is more than 10000 nM in the series on A431 cells (setting [8]) and 10000 nM in the series with A431 cells (setting [10]). For the same compound, on WT EGFR [2] (supplementary CSV column), the “EGFR pIC50” value is 8.1 +/- 0.82. Also, the “inhibition of EGFR phosphorylation at 1 μM” value in series [4] was “some inhibition”.

As for “(E)-1-(3-(4-((4-((3-Chloro-4-fluorophenyl)amino)-7-methoxyquinazolin-6-yl)oxy)piperidin-1-yl)-3-oxoprop-1-en-1-yl)-5-fluoropyrimidine-2,4(1H,3H)-dione [compound 51]”, the “WT EGFR pIC50” value on WT EGFR [2] turned out to be 6.6.

“(S, E)-1-(3-(3-((4-((3-Chloro-4-fluorophenyl)amino)-7-methoxyquinazolin-6-yl)oxy)pyrrolidin-1-yl)-3-oxoprop-1-en-1-yl)-5-fluoropyrimidine-2,4(1H,3H)-dione [compound 50]”: the “DM EGFR pIC50” value in the series on DM EGFR (setting [7]) was determined as 6.6. The “WT EGFR pIC50” value on WT EGFR [2] is 5.9.

For “3-((4-(1-Methyl-1H-indol-3-yl)pyrimidin-2-yl)amino)-4-nitrophenyl (E)-3-(5-Fluoro-2,4-dioxo-3,4-dihydropyrimidin-1(2H)-yl)acrylate [compound 39]”, on WT EGFR [1], the “adduct formation with EGFR” value was “evidence of adduct formation” and the “release of 5FU from EGFR adduct” value was “without evidence of the release of 5FU”. Moreover, the “DM EGFR pIC50” value in the series on DM EGFR (setting [7]) is recorded as 3.7. On WT EGFR [2], the “WT EGFR pIC50” value is listed as less than 4.0.

For “(E)-N-(3-((5-Chloro-4-(pyrazolo[1,5-a]pyridin-3-yl)pyrimidin-2-yl)amino)-4-methoxyphenyl)-3-(5-fluoro-2,4-dioxo-3,4-dihydropyrimidin-1(2H)-yl)acrylamide [compound 30]”, at WT EGFR [1], the “adduct formation with EGFR” value is “an adduct formed”, the “release of 5FU from EGFR adduct” value is “without 5FU release; also recorded: no evidence of the release of 5FU” and the “mass increase of initial (intact) adduct” value amounted to 548 Da. Further, the “DM EGFR pIC50” value in the series on DM EGFR was 6.8. On WT EGFR [2], the “WT EGFR pIC50” value is listed as 5.7.
